Drawing on patent US20080234262A1 (Wyeth, priority 2007, published 2008), this text covers IC50 for 18 compounds.

In one assay the test system is prostate line LNCap. In words: In vitro cell culture growth assay (MTS), LNCap. Format: cell-based, human. The following applies: Homo sapiens, LNCaP, 72 h, LNCap cells, three days after drug treatment.
The next assay deals with PI3K (Homo sapiens, UniProt P42336). The experiment in a line: Fluorescence polarization assay for PI3K.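 Also: PI3K kinase reaction on PIP2 with ATP, 30-60 min, product sensed by GST-GRP with red probe in fluorescence polarization (mP), controls without enzyme and at zero time.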 Format: biochemical. The note with it: PI3Kα; read-out: PI3Kα IC50.
Chain of PI3K (P42336 whole entry): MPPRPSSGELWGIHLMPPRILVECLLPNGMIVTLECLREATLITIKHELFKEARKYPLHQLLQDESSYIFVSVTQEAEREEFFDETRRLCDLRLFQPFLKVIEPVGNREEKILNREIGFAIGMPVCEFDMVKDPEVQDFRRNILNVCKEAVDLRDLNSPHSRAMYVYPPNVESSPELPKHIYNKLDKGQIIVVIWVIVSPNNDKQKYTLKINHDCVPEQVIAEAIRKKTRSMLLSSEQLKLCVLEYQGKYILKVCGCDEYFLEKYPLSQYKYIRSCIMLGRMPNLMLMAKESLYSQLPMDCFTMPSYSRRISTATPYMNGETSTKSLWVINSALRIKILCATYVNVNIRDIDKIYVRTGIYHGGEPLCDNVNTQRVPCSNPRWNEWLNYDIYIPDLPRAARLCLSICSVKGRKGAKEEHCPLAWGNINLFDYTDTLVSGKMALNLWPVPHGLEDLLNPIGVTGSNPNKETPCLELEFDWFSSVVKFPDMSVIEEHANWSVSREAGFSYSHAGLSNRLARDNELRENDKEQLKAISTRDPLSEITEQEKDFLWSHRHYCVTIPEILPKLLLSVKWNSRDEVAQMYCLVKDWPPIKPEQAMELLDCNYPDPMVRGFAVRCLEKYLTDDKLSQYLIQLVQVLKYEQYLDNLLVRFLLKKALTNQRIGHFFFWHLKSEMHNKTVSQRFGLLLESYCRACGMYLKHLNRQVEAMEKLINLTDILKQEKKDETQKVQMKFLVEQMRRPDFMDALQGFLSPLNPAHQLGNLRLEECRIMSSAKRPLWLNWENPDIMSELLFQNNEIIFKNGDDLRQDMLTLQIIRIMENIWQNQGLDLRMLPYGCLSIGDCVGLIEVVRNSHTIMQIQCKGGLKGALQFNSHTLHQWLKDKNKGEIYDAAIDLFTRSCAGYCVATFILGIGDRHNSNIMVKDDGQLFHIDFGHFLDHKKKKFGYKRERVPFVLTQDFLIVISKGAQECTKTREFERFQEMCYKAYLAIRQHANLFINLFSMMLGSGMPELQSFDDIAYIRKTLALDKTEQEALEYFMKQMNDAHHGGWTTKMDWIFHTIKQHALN
Chain of PI3K (P27986 whole entry partner): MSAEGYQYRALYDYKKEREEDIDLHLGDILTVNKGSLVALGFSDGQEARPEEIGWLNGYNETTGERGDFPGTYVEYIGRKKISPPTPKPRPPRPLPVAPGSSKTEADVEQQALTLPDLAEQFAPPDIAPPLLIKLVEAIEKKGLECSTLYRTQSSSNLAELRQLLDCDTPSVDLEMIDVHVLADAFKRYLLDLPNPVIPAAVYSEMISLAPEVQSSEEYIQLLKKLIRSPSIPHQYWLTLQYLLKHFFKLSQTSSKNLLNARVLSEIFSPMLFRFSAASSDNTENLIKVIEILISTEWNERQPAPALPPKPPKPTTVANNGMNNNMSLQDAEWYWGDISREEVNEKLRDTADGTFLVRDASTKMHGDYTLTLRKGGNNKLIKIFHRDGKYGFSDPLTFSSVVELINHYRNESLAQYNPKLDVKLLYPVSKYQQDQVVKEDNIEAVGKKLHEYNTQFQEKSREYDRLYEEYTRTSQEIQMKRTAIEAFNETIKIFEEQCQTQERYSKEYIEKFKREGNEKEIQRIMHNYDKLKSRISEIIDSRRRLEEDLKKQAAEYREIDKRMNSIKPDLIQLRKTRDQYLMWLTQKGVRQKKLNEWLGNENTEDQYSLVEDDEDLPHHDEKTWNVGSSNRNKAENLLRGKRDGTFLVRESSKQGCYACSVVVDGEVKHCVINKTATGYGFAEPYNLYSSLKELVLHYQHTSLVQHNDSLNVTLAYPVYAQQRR
A further assay concerns breast line MDA468. In words: In vitro cell culture growth assay (MTS), MDA468. It is filed as cell-based, human. The following applies: Homo sapiens, 72 h, MDA468 cells, three days after drug treatment. In a few lines:
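Cells were plated and, one day later, exposed to inhibitors for three days; viable cell density was then measured by metabolic conversion of MTS dye, read as absorbance at 490 nm. Growth is expressed as percent of vehicle-treated control cells on the same plate.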

For the compound `COC(=O)N1CCC(n2ncc3c(N4CCOCC4)nc(-c4ccc(NC(=O)OCCN5CCN(C)CC5)cc4)nc32)CC1` [Compound 907, methyl 4-{6-[4-({[2-(4-methylpiperazin-1-yl)ethoxy]carbonyl}amino)phenyl]-4-morpholin-4-yl-1H-pyrazolo[3,4-d]pyrimidin-1-yl}piperidine-1-carboxylate], the IC50 with prostate line LNCap was found to be 5500 nM; on PI3K, 1850 nM; in the assay on breast line MDA468, 7000 nM.

As for `CNC(=O)Nc1ccc(-c2nc(N3CCOCC3)c3cnn(C4CCN(C(=O)OCCOC)CC4)c3n2)cc1` [Compound 800, 2-methoxyethyl 4-(6-{4-[(methylcarbamoyl)amino]phenyl}-4-morpholin-4-yl-1H-pyrazolo[3,4-d]pyrimidin-1-yl)piperidine-1-carboxylate], the IC50 in the assay with prostate line LNCap was 140 nM; on PI3K it was 119 nM; with breast line MDA468, 260 nM.

Take `COC(=O)N1CCC(n2ncc3c(N4CCOCC4)nc(-c4ccc(NC(=O)Nc5ccncc5F)cc4)nc32)CC1` [Compound 864, methyl 4-[6-(4-{[(3-fluoropyridin-4-yl)carbamoyl]amino}phenyl)-4-morpholin-4-yl-1H-pyrazolo[3,4-d]pyrimidin-1-yl]piperidine-1-carboxylate]: the IC50 turned out to be 27.4 nM in the assay with prostate line LNCap, 116 nM at PI3K and 98 nM with breast line MDA468.

Consider `CNC(=O)Nc1ccc(-c2nc(N3CCOCC3)c3cnn(C4CCN(C(=O)c5ccc(Br)cc5)CC4)c3n2)cc1` [Compound 606, 1-(4-{1-[1-(4-bromobenzoyl)piperidin-4-yl]-4-morpholin-4-yl-1H-pyrazolo[3,4-d]pyrimidin-6-yl}phenyl)-3-methylurea], for which the IC50 in the assay on prostate line LNCap was 52 nM; at PI3K, 34 nM; in the assay on breast line MDA468 it was 180 nM.

As for `CC(C)C(=O)N1CCC(n2ncc3c(N4CCOCC4)nc(-c4ccc(NC(=O)Nc5cccnc5)cc4)nc32)CC1` [Compound 828, 1-{4-[1-(1-isobutyrylpiperidin-4-yl)-4-morpholin-4-yl-1H-pyrazolo[3,4-d]pyrimidin-6-yl]phenyl}-3-pyridin-3-ylurea], the IC50 was found to be 120 nM in the assay on prostate line LNCap, 50 nM at PI3K and 330 nM in the assay with breast line MDA468.

As to `CCOC(=O)N1CCC(n2ncc3c(N4CCOCC4)nc(-c4ccc(NC(=O)NCCO)cc4)nc32)CC1` [Compound 818, ethyl 4-[6-(4-{[(2-hydroxyethyl)carbamoyl]amino}phenyl)-4-morpholin-4-yl-1H-pyrazolo[3,4-d]pyrimidin-1-yl]piperidine-1-carboxylate], the IC50 was found to be 320 nM in the assay on prostate line LNCap, 445 nM on PI3K and 250 nM with breast line MDA468.

For the compound `CNC(=O)Nc1ccc(-c2nc(N3CCOCC3)c3cnn(C4CCN(Cc5ccc(F)nc5)CC4)c3n2)cc1` [Example 387, 1-[4-(1-{1-[(6-fluoropyridin-3-yl)methyl]piperidin-4-yl}-4-morpholin-4-yl-1H-pyrazolo[3,4-d]pyrimidin-6-yl)phenyl]-3-methylurea], the results for the IC50 in the assay on prostate line LNCap, on PI3K and with breast line MDA468 were 35 nM, 109 nM and 100 nM, respectively.

With `CNC(=O)Nc1ccc(-c2nc(N3CCOCC3)c3cnn(C4CCC(=O)CC4)c3n2)cc1` [Compound 567, 1-methyl-3-{4-[4-morpholin-4-yl-1-(4-oxocyclohexyl)-1H-pyrazolo[3,4-d]pyrimidin-6-yl]phenyl}urea], the IC50 was 27 nM in the assay with prostate line LNCap, 56 nM at PI3K and 180 nM with breast line MDA468.

As to `Brc1ccc(CN2CCC(n3ncc4c(N5CCOCC5)nc(-c5ccc6[nH]ccc6c5)nc43)CC2)cn1` [Example 173, 1-{1-[(6-bromopyridin-3-yl)methyl]piperidin-4-yl}-6-(1H-indol-5-yl)-4-morpholin-4-yl-1H-pyrazolo[3,4-d]pyrimidine], the figures for the IC50 in the assay with prostate line LNCap, at PI3K and with breast line MDA468 were 1200 nM, 262 nM and 2700 nM, respectively.

On to `CN(C)CCCNC(=O)Nc1ccc(-c2nc(N3CCOCC3)c3cnn(C4CCN(Cc5ccccc5)CC4)c3n2)cc1` [Compound 271, 1-{4-[1-(1-benzylpiperidin-4-yl)-4-morpholin-4-yl-1H-pyrazolo[3,4-d]pyrimidin-6-yl]phenyl}-3-[3-(dimethylamino)propyl]urea], for which the IC50 in the assay on prostate line LNCap was 650 nM; at PI3K it was 158 nM; with breast line MDA468, 2000 nM.

Regarding `CC(C)C(=O)N1CCC(n2ncc3c(N4CCOCC4)nc(-c4ccc(NC(=O)NC5CC5)cc4)nc32)CC1` [Compound 824, 1-cyclopropyl-3-{4-[1-(1-isobutyrylpiperidin-4-yl)-4-morpholin-4-yl-1H-pyrazolo[3,4-d]pyrimidin-6-yl]phenyl}urea], the IC50 came to 110 nM in the assay with prostate line LNCap, 2030 nM at PI3K and 700 nM in the assay with breast line MDA468.

Consider `NC(=O)c1cccc(-c2nc(N3CCOCC3)c3cnn(C4CCN(Cc5ccccc5)CC4)c3n2)c1` [Compound 82], for which the IC50 worked out at 13000 nM in the assay on prostate line LNCap, 877 nM at PI3K and 29000 nM in the assay with breast line MDA468.

On to `COC(=O)Nc1ccc(-c2nc(N3CCOCC3)c3cnn(C4CCN(C(=O)OC(C)(C)C)CC4)c3n2)cc1` [Compound 772, tert-butyl 4-(6-{4-[(methoxycarbonyl)amino]phenyl}-4-morpholin-4-yl-1H-pyrazolo[3,4-d]pyrimidin-1-yl)piperidine-1-carboxylate], for which the IC50 came to 1300 nM in the assay on prostate line LNCap, 5030 nM at PI3K and 5500 nM in the assay with breast line MDA468.

Regarding `CNCCNC(=O)Nc1ccc(-c2nc(N3CCOCC3)c3cnn(C4CCN(Cc5ccccc5)CC4)c3n2)cc1` [Example 300, 1-{4-[1-(1-benzylpiperidin-4-yl)-4-morpholin-4-yl-1H-pyrazolo[3,4-d]pyrimidin-6-yl]phenyl}-3-[2-(methylamino)ethyl]urea], the IC50 in the assay with prostate line LNCap stood at 200 nM; at PI3K, 13 nM; with breast line MDA468, 200 nM.

As to `O=C(Nc1ccc(-c2nc(N3CCOCC3)c3cnn(C4CCNCC4)c3n2)cc1)Nc1cccnc1` [Compound 779, 1-[4-(4-morpholin-4-yl-1-piperidin-4-yl-1H-pyrazolo[3,4-d]pyrimidin-6-yl)phenyl]-3-pyridin-3-ylurea], the IC50 in the assay on prostate line LNCap was 2800 nM; at PI3K it was 26 nM; with breast line MDA468 it was 900 nM.

With `CCCOC(=O)N1CCC(n2ncc3c(N4CCOCC4)nc(-c4ccc(NC(=O)Nc5ccccc5)cc4)nc32)CC1` [Compound 849, propyl 4-(4-morpholin-4-yl-6-{4-[(phenylcarbamoyl)amino]phenyl}-1H-pyrazolo[3,4-d]pyrimidin-1-yl)piperidine-1-carboxylate], the values for the IC50 in the assay on prostate line LNCap, on PI3K and with breast line MDA468 were 95 nM, 24 nM and 300 nM, respectively.

With `CCOC(=O)Nc1ccc(-c2nc(N3CCOCC3)c3cnn(C4CCN(C(=O)OC)CC4)c3n2)cc1` [Compound 900, methyl 4-(6-{4-[(ethoxycarbonyl)amino]phenyl}-4-morpholin-4-yl-1H-pyrazolo[3,4-d]pyrimidin-1-yl)piperidine-1-carboxylate], the results for the IC50 with prostate line LNCap, on PI3K and in the assay on breast line MDA468 were 760 nM, 6720 nM and greater than 60000 nM, respectively.

`CNC(=O)Nc1ccc(-c2nc(N3CCOCC3)c3cnn([C@@H]4CCCNC4)c3n2)cc1` [Compound 875, 1-methyl-3-(4-{4-morpholin-4-yl-1-[(3R)-piperidin-3-yl]-1H-pyrazolo[3,4-d]pyrimidin-6-yl}phenyl)urea]: the IC50 with prostate line LNCap was 1100 nM; on PI3K it was 46 nM; in the assay with breast line MDA468 it was 1250 nM.
